Data on eight compounds can be found in patent publication US20240226127A1, “NUCLEOSIDE COMPOUND AND APPLICATION THEREOF IN THE TREATMENT OF FELINE INFECTIOUS PERITONITIS” (VIGONVITA LIFE SCIENCES CO., LTD., priority 2021, published 2024).

Structures are written as SMILES. ≈ marks a conversion by molar mass, not a printed value.

Usually EC50 stands for the concentration that produces a half-maximal response. A lower EC50 goes with greater potency. By solubility is commonly meant the dissolved amount per volume that the medium holds. Low readings indicate little dissolved substance, high ones much dissolved substance.

The subject of series [1] is feline infectious peritonitis. Nature of the series: Pharmacodynamic experiment on feline infectious peritonitis (subcutaneous aqueous injection). The format is in vivo. To be noted: cats with feline infectious peritonitis, 2 mg/kg once a day subcutaneous aqueous injection, two weeks; for weight changes of cats before and after treatment: FIG. 1; for number of erythrocytes: FIG. 2; for ratio of Albumin to Globulin (A/G): FIG. 3. The method, then: 15 mg of compounds 1, 32, and 85 was dissolved separately in 5 mL of solution (water:propylene glycol:PEG=2:1:1) to prepare an injection solution for injection administration. The injection can be stored at room temperature. Use a 2 mL disposable veterinary syringe to draw the corresponding volume of the injection solution and expel air upwards. When injecting, choose a site with soft skin, loose subcutaneous tissue, and fewer blood vessels, such as the neck or medial thigh, for subcutaneous injection. The dosage of administration is 2 mg/kg body weight once a day. Blood samples are collected every three days and blood routine and corresponding biochemical indicators are measured. The end of the experiment is marked when the cat's biochemical indicators return to normal. The indicator data measured in the experiment includes body weight data, erythrocyte data, and data of the ratio of Albumin to Globulin. The experimental subjects for each compound are 15 cats diagnosed with feline infectious peritonitis.

The test system of series [2] is Feline Infectious Peritonitis Virus (FIPV). Kind of series: In vitro anti feline infectious peritonitis virus (FIPV) activity in CRFK cells. Type of series: cell-based. To be noted: Alphacoronavirus 1, 0.1 MOI FIPV, 72 hours, CellTier-Glo cell viability. The method, then: Well-growing CRFK cells were inoculated on a 96-well plate. When the cells grow to 80%-90% confluence, 0.1 MOI Feline Infectious Peritonitis Virus (FIPV) and different concentrations of test compounds (0.3125 μM, 0.625 μM, 1.25 μM, 2.5 μM, 5 μM, 10 μM, 20 μM, and 40 μM) were added to each well. Simultaneously set up cell control and virus control with 1% DMSO each well. After being incubated at 37° C. for 72 hours, the cells were treated with CellTier-Glo luminescence assay cell viability detection reagents (Promega, Madison, WI, USA), and the half effective concentration (EC50) of the compounds against virus inhibition was calculated by GraphPad prism 7 software.

Series [3] in a line: Solubility test in water (HPLC, external standard method). Type of series: physicochemical. The conditions noted are these: thermodynamic from solid. The method, then: Experimental method: Refer to the high-performance liquid chromatography method (Chinese Pharmacopoeia, 2020 Edition, Part Four, General Rule 0512) for determination.
a. Take approximately 1-2 mg of the compound, and place it in a 10 ml volumetric flask. Add lml of water and vigorously shake for 30 seconds every 5 minutes. Observe for 30 minutes. The sample is not completely dissolved. Filter through a 0.45 μm filter membrane, and take the remaining filtrate as the test solution.
b. Take approximately amount of the reference substance, add solvent (DMSO: methanol=10:90) to dissolve and dilute it quantitatively to produce a solution containing 0.1 mg per 1 ml as the reference substance solution.
c. Accurately measure 20 μl of each of the reference substance and test solution, and inject them into the liquid chromatograph respectively. Calculate the peak area according to the external standard method. Calculation formula: […]
In the formula: AT: the main peak area of the test solution; AR: the main peak area of reference substance solution; WR: weighing amount of reference substance solution, mg; VR: dilution volume of reference substance solution, ml; S: content of reference substance solution, %.
d. Chromatographic conditions: Using octadecylsilane bonded silica gel as the filling agent (Welch Ultimate XB-C18, 4.6×150 mm, suitable for 5 um columns). […]

Turning to `CC(=O)OC[C@H]1O[C@@](C#N)(c2ccc3c(N)ncnn23)[C@H](O)[C@@H]1O` [Compound 1], in series [1], the “weight changes of cats before and after treatment” value (shortened to “weight changes”) is “significantly raised”; the number of erythrocytes entry is “significantly increased”; the “ratio of Albumin to Globulin (A/G)” value was “reached normal values”.

For the compound `CC(C)C(=O)OC[C@H]1O[C@@](C#N)(c2ccc3c(N)ncnn23)[C@H](O)[C@@H]1O` [Compound 4], the EC50 in series [2] came to 650 nM.

On to `N#C[C@@]1(c2ccc3c(N)ncnn23)O[C@H](COC(=O)CC(F)(F)F)[C@@H](O)[C@H]1O` [Compound 14], for which the EC50 in series [2] was 2950 nM.

`N#C[C@@]1(c2ccc3c(N)ncnn23)O[C@H](COC(=O)C2CCC2)[C@@H](O)[C@H]1O` [Compound 16] gave an EC50 in series [2] of 810 nM.

In series [2], `N#C[C@@]1(c2ccc3c(N)ncnn23)O[C@H](COC(=O)C2CCCCC2)[C@@H](O)[C@H]1O` [Compound 18] displayed an EC50 of 350 nM.

Consider `N#C[C@@]1(c2ccc3c(N)ncnn23)O[C@H](COC(=O)CO)[C@@H](O)[C@H]1O` [Compound 32], for which, in series [1], the “weight changes” value is “significantly raised”; the number of erythrocytes result is “significantly increased”; the “ratio of Albumin to Globulin (A/G)” value was “reached normal values”. Besides, in series [2], the midpoint of the response, the EC50, lay at 6210 nM.

As to `CN(C)CCN(C)C(=O)OC[C@H]1O[C@@](C#N)(c2ccc3c(N)ncnn23)[C@H](O)[C@@H]1O` [Compound 85], in series [1], the “weight changes” value was “significantly raised”; the number of erythrocytes entry is on record as “significantly increased”; the “ratio of Albumin to Globulin (A/G)” value is recorded as “reached normal values”.

Compound `N#C[C@@]1(c2ccc3c(N)ncnn23)O[C@H](CO)[C@@H](O)[C@H]1O` [GS-441524] yielded a solubility at 30 min in series [3] of 50 µg/mL (≈ 172 µM).
